Values joined by “and” are separate entries in the source; they are usually repeats but may differ in a detail not shown here. Equal values may be shown once.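 Compound exposure: 48 hours, 5 concentrations, 96-well plates. Here, GI50 denotes the concentration required for 50% inhibition of growth. The concentration for full growth arrest is given as TGI.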
Tests used:
Experiment in all cases: NCI anticancer screen, dose series, 48 h
OVCAR-5 ovarian = tested on: OVCAR-5 ovarian
HS 578T breast = tested on: HS 578T breast
MOLT-4 leukemia = tested on: MOLT-4 leukemia
IGROV1 ovarian = tested on: IGROV1 ovarian
TK-10 renal = tested on: TK-10 renal
SNB-75 CNS = tested on: SNB-75 CNS
A549 NSCLC = tested on: A549 NSCLC
NCI-H460 lung = tested on: NCI-H460 lung
NCI-H522 lung = tested on: NCI-H522 lung
SNB-19 CNS = tested on: SNB-19 CNS

SMILES | GI50 (OVCAR-5 ovarian) [µM] | TGI (OVCAR-5 ovarian) [µM] | GI50 (HS 578T breast) [µM] | TGI (HS 578T breast) | GI50 (MOLT-4 leukemia) [µM] | TGI (MOLT-4 leukemia) [µM] | GI50 (IGROV1 ovarian) [µM] | TGI (IGROV1 ovarian) | GI50 (TK-10 renal) [µM] | TGI (TK-10 renal) [µM] | GI50 (SNB-75 CNS) [µM] | TGI (SNB-75 CNS) | GI50 (A549 NSCLC) [µM] | TGI (A549 NSCLC) [µM] | GI50 (NCI-H460 lung) [µM] | TGI (NCI-H460 lung) [µM] | GI50 (NCI-H522 lung) | TGI (NCI-H522 lung) | GI50 (SNB-19 CNS) [µM] | TGI (SNB-19 CNS) [µM]
O=C(N/N=C\c1cc(Cl)ccc1O)N/N=C/c1cc(Cl)ccc1O | > 100 | > 100 | 0.643 | > 100 µM | 57.5 | > 100 | 1.56 | > 100 µM | > 100 | > 100 | 0.969 | > 100 µM | 0.521 | > 100 | 0.518 | > 100 | 0.616 µM | 19 µM | > 100 | > 100
CN(C)c1ccc(/C=N/Nc2ccc(-c3nc4ccccc4[nH]3)cc2)cc1 | 28.9 | > 50 | 5.61 | 23.6 µM | – | – | 9.37 | > 50 µM | 47.3 | > 50 | – | – | 9.33 | 27.1 | 9.33 | 20.4 | 10.3 µM | 31.2 µM | 17.3 | > 50
ClCc1ccc(Cn2cnc3ncnc(Cl)c32)cc1 | 6.26 | 19.7 | 1.74 | 4.3 µM | – | – | 7.61 | 31.1 µM | 1.48 | 2.92 | – | – | 1.81 | 4.13 | 1.78 | 4.31 | 4.3 µM | > 100 µM | 1.72 | 3.15
COc1cc(C(=O)c2c(-c3ccccc3)oc3ccccc23)cc(OC)c1O | 4.64 | 32.6 | 0.898 | 8.47 µM | 2.69 | 22.2 | 2.6 | 18.7 µM | 20.5 | > 100 | 0.231 | 2.22 µM | 4.41 | > 100 | 2.22 | 10.7 | 0.773 µM | 19.6 µM | 6.76 | 21.7
COc1ccc2c3c([nH]c2c1)[C@H]1C[C@H]2[C@H](C[C@@H](O)[C@H](OC)[C@H]2C(=O)O)CN1CC3 | – | > 100 | – | > 100 µM | – | > 100 | – | > 100 µM | – | > 100 | – | > 100 µM | – | > 100 | – | > 100 | – | > 100 µM | – | > 100
CC(C)(C)c1ccc(C(O)(c2ccc(C(C)(C)C)cc2)c2ccc(C(C)(C)C)cc2)cc1 | – | > 100 | – | > 100 µM | – | > 100 | – | > 100 µM | – | > 100 | – | > 100 µM | – | > 100 | – | > 100 | – | > 100 µM | – | > 100
NC(=O)c1ccc(NC(=O)c2oc3ccccc3c2-c2cnn(-c3ccccc3)c2)cc1 | > 100 | > 100 | 4.56 | > 100 µM | > 100 | > 100 | – | – | > 23.3 | > 100 | 1.89 | 8.31 µM | – | – | > 100 | > 100 | > 100 µM | > 100 µM | 8.98 | > 100
CCNC1=CC(=O)c2ncccc2C1=O | 1.79 | 3.47 | 1.69 | 6.27 µM | 2.94 | 14.3 | 7.91 | 24.5 µM | 15.6 | 29.7 | 1.19 | 2.45 µM | 1.2 | 3.38 | 0.439 | 2 | 1.79 µM | 4.23 µM | 1.59 | 6.7
C[C@@H]1CC[C@H]2C(CN3CCN(CC4=C(C(F)(F)F)O[C@@H]5O[C@@]6(C)CC[C@H]7[C@H](C)CC[C@@H]4[C@@]57OO6)CC3)=C(C(F)(F)F)O[C@@H]3O[C@@]4(C)CC[C@@H]1[C@]32OO4 | 1.45 | > 100 | 1.75 | > 47.3 µM | 5.35 | > 100 | > 27.4 | > 100 µM | 4.2 | 99.7 | 1.74 | > 29.4 µM | 3.31 | > 100 | 3.14 | > 100 | 2.78 µM | > 27 µM | 7.75 | > 100
COCCOCCOCCOCCOc1ccc2c(c1)C(=O)c1nc3ncccc3c(=O)n1-2 | 1.78 | 3.16 | 1.09 | 4.02 µM | 3.61 | > 100 | – | – | 1.29 | 2.69 | 2.07 | 3.65 µM | 0.465 | 2.41 | 0.4 | 1.39 | 1.67 µM | 3.3 µM | 1.28 | 2.64
CCn1cc(C2NC(=O)c3cc(F)ccc3N2)c2cccc(Cl)c21 (configuration not stated) | 0.503 | > 100 | 0.197 | > 23.1 µM | 0.293 | > 47.8 | 0.388 | > 100 µM | > 100 | > 100 | 0.123 | 11.9 µM | 0.364 | > 100 | 0.32 | > 100 | 0.135 µM | > 32.1 µM | 0.382 | > 100
COc1ccccc1OCC(O)CO (configuration not stated) | > 100 | > 100 | > 100 | > 100 µM | > 100 | > 100 | > 100 | > 100 µM | > 100 | > 100 | > 100 | > 100 µM | > 100 | > 100 | > 100 | > 100 | > 100 µM | > 100 µM | > 100 | > 100
Cn1cc(/C=C2\C(=O)Nc3cccnc32)c2ccccc21 | > 25 | > 25 | 8.58 | > 25 µM | 11.5 | > 25 | 6.82 | > 25 µM | 12.3 | > 25 | > 19.6 | > 25 µM | 11.8 | > 25 | 16.4 | > 25 | 14.7 µM | > 25 µM | > 25 | > 25
O=C1CCC(c2ccccc2)(c2ccccc2)CC1 | – | > 100 | – | > 100 µM | – | > 100 | – | > 100 µM | – | > 100 | – | > 100 µM | – | > 100 | – | > 100 | – | > 100 µM | – | > 100
O=C(/C=C/c1cccs1)Nc1ncc(Cc2ccccc2F)s1 | 0.506 | > 100 | 0.27 | > 100 µM | 0.378 | > 100 | 0.541 | > 100 µM | – | > 100 | 0.154 | 0.651 µM | 0.48 | > 100 | 0.335 | > 100 | 0.194 µM | – | 0.361 | > 100
Nc1ccccc1C#Cc1ccccc1C#CCCCCO | 25.6 | 64.4 | 35.8 | > 100 µM | 22.7 | 68.1 | 17.5 | 46.7 µM | 27.5 | 91.5 | 11.3 | 33.6 µM | 18 | 45 | 30.5 | > 100 | 14.3 µM | 31.2 µM | 35.7 | > 100
O=C(O)CCN1C(=O)/C(=C/C(Cl)=C/c2ccccc2)SC1=S | 2.77 | 6.8 | 3.18 | 17.3 µM | 1.98 | 8.12 | 2.42 | 6.98 µM | 4.19 | 9.59 | 1.79 | 10.1 µM | 3.52 | 15.1 | 3.21 | 10.8 | 2.07 µM | 5.66 µM | 3.41 | 13.3
O=C(O)C(O)C(O)C1[O][Sb][O]C1CO (configuration not stated) | > 100 | > 100 | > 100 | > 100 µM | > 100 | > 100 | > 100 | > 100 µM | > 100 | > 100 | > 100 | > 100 µM | > 100 | > 100 | > 100 | > 100 | > 100 µM and 14 µM | > 100 µM and 38.9 µM | > 100 | > 100
C1CCN2CC34CC(CC5CCCN(C6CCCC3N6)C54)C2C1 (configuration not stated) | – | > 100 | – | > 100 µM | – | > 100 | – | > 100 µM | – | > 100 | – | > 100 µM | – | > 100 | – | > 100 | – | > 100 µM | – | > 100
C[C@H]1CC(=O)[C@@]2(O)C#C/C=C\C#C[C@@H]3Nc4c(cc(O)c5c4C(=O)c4ccccc4C5=O)[C@]24O[C@]314 | – | 0.679 | 0.292 | 8.35 µM and 1.35 µM | 0.0025 | 0.00278 | 0.0025 | 0.452 µM and 0.7 µM | 0.492 | – | 0.0062 | 0.0804 µM and 0.0719 µM | – | 0.82 | 0.0025 | – | 0.032 µM | 0.293 µM and 0.384 µM | – | 0.172
C=C(C)[C@@H]1CC[C@]2(C#N)CC[C@]3(C)[C@H](CC[C@@H]4[C@@]5(C)CCCNC(C)(C)[C@@H]5CC[C@]43C)[C@@H]12 | 2.72 | 7.15 | 2.01 | 4.85 µM | 2.14 | 5.57 | 1.82 | 3.47 µM | 2.04 | 4.54 | – | – | 1.94 | 3.77 | 1.88 | 3.54 | 1.93 µM | 3.61 µM | 2.29 | 4.69
O=C(Nc1ccc(-c2nc3ccc(NC(=O)c4ccc(Cl)cc4)cc3[nH]2)cc1)c1ccc(Cl)cc1 | 5.45 | 19.2 | 0.0559 | 7.9 µM | 0.901 | 8.31 | 6.73 | 19.6 µM | 2.39 | 5.8 | 1.52 | 7.93 µM | 2.05 | 5.08 | 1.79 | 4.03 | 2.95 µM | 9.36 µM | 13.8 | 28.4
CCN(CC)c1ccc(/C=N\NC(=O)c2cccc(Nc3ccnc(C(F)(F)F)c3)c2)c(O)c1 | 0.408 | > 39.3 | 0.374 | 11.6 µM | 0.126 | 1.49 | 0.143 | – | 0.371 | > 100 | 0.253 | 7.44 µM | 0.587 | > 100 | 0.199 | 2.24 | 0.393 µM | 15.7 µM | 0.418 | > 100
CC(C)=CCC[C@](C)(O)[C@H]1CC[C@]2(C)[C@@H]1CC[C@@H]1[C@@]3(C)CC[C@H](OC(=O)CCC(=O)O)C(C)(C)[C@@H]3CC[C@]12C | 28.8 | 96.3 | 45.8 | > 100 µM | 21 | 94 | 18.5 | 72.7 µM | 87.8 | > 100 | > 100 | > 100 µM | 32.3 | > 100 | 36.4 | > 100 | 26.2 µM | > 100 µM | 25.1 | > 100
CN1C=CN(Cc2ccc(-c3ccccn3)nc2)[CH-]1.CN1C=CN(Cc2ccc(-c3ccccn3)nc2)[CH-]1.[Au+3] | 5.84 | 27.3 | > 40.6 | > 100 µM | 1.1 | 12.4 | 1.42 | 10.3 µM | 5.09 | 27 | 13.9 | > 51.8 µM | 8.69 | > 100 | 3.37 | > 100 | 0.104 µM | 0.494 µM | 7.83 | 40
Fc1cc(Nc2ccc3c(OCCCN4CCOCC4)cccc3n2)ccc1Cl | 2.13 | 4.88 | 2.19 | 6 µM | 1.68 | 3.88 | 3.19 | 9.32 µM | 2.01 | 4.1 | 1.86 | 6.2 µM | 2.96 | 8.47 | – | – | 1.72 µM | 3.35 µM | 2.21 | 5.29
CCn1c(-c2cc3ccccc3cc2OC(=O)c2ccccc2)n[nH]c1=S | > 50 | > 50 | 11.6 | 44.8 µM | 28 | > 50 | 1.51 | 8.54 µM | > 50 | > 50 | > 50 | > 50 µM | > 50 | > 50 | – | – | 11 µM | 45.4 µM | > 50 | > 50

Reference: PubChem BioAssay (NCI)
